Reference: patent US12649750B2, “Macrocyclic compounds, compositions, and methods of using thereof” (Sionna Therapeutics Inc., priority 2022, dated 2026)

What was measured:
[1] = biological target: T1, CFTR (Homo sapiens, UniProt P13569, DEL508-508); experiment: TECC24 AUC fold over DMSO @10 μM, CFTR-mediated transepithelial chloride transport in CF-HBE cells; format: cell-based; conditions: test agent AUC divided by DMSO vehicle AUC, primary CF-HBE cells, ΔF508 homozygous donor, 48 hours incubation
T1 construct: Primary human bronchial epithelial cells from a ΔF508 homozygous CF donor; host or cells: primary human bronchial epithelial cells (CF-HBE), ΔF508 homozygous donor
How it was run: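 ΔF508-homozygous primary bronchial epithelial cells incubated 48 h at 36.5° C with compound (10 μM) in IL-13-containing medium, then TECC24 current-clamp recording in pH 7.4 Hepes saline with benzamil 10 μM, forskolin 10 μM, then CFTR inhibitor-172 20 μM. Equivalent Cl− current AUC between forskolin and inhibitor, expressed as fold over DMSO.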

[2] = biological target: T2, NBD1 (Homo sapiens, UniProt P13569); experiment: Aggregation analysis using differential static light scattering (DSLS), thermal stability of NBD1 (ΔTagg); format: binding; conditions: ΔTagg versus DMSO control, NBD1 0.2 mg/ml
T2 construct: Purified recombinant NBD1 was produced using previously described methods; made in house
How it was run: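 Purified recombinant NBD1 at 0.2 mg/ml in 50 mM Tris-HCl, 150 mM NaCl, 5 mM MgCl2, 2 mM ATP, 2 mM DTT, pH 7.6, 1% glycerol, with compound, heated 1° C./min to 70° C. under light-scattering monitoring. Tagg taken at curve inflection; ΔTagg is compound Tagg minus mean DMSO-control Tagg, binned A (≤5° C.), B (>5-≤10° C.), C (>10-≤25° C.).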

T2 sequence (P13569 423-646 limits assumed): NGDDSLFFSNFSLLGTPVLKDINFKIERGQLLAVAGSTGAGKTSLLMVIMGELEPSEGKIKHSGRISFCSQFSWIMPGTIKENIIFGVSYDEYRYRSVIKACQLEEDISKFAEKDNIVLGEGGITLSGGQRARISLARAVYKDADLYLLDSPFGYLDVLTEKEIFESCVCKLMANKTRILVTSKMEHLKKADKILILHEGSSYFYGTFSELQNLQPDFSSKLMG
T1 sequence (P13569 with tags, fused parts or gaps DEL508-508): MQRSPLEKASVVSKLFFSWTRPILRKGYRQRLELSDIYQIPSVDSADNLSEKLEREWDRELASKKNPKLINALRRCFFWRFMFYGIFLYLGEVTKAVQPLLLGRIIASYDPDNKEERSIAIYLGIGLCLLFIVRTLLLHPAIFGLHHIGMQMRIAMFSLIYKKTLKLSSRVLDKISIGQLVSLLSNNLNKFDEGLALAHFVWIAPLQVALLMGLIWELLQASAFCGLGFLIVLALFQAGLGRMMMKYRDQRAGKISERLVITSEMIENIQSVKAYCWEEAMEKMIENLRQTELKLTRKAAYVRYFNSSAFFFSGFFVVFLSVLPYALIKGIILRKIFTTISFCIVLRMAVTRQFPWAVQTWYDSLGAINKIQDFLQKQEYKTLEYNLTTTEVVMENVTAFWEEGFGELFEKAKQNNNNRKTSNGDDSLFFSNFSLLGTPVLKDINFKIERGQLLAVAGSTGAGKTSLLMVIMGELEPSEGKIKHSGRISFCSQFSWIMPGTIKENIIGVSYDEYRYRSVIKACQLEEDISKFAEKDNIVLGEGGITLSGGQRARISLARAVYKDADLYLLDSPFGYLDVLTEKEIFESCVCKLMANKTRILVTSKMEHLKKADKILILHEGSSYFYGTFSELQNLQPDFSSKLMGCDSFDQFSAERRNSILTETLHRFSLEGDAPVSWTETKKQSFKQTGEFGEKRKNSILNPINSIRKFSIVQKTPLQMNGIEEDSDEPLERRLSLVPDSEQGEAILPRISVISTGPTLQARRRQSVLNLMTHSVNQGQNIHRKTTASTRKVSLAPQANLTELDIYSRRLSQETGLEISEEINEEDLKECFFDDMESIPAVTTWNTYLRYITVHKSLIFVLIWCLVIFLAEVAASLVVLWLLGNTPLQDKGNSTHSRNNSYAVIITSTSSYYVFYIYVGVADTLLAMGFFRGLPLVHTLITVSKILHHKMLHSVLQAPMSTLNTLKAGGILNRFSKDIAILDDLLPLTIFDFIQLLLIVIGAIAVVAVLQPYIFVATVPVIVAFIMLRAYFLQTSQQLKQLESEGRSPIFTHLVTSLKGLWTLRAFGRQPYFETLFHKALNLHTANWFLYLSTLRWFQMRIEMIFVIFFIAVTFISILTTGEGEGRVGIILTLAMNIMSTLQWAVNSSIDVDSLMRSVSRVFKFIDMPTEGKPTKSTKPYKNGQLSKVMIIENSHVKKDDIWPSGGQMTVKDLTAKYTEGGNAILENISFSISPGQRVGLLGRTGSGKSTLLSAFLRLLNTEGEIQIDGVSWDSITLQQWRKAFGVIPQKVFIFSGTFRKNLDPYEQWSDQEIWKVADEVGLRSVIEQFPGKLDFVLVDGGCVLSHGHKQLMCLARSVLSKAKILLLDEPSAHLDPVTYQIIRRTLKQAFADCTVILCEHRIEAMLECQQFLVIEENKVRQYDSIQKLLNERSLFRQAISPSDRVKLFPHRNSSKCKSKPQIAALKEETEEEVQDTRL

| Structure (SMILES) | TECC (AUC, 10 μM) [1] | DSLS 3D (100 μM ΔT) [2] |
| --- | --- | --- |
| Cn1nc2nc1-c1cc(ccn1)[S+]([O-])c1c(F)cc3[nH]ccc3c1CCS(=O)(=O)CC(C)(C)CCC[C@]2(C)c1cccc(CC(=O)O)c1 (single isomer, unassigned) [Compound 249B] | B (a value between 12-20 is marked “B”) | C (a value greater than 10 °C and less than or equal to 25 °C is marked “C”) |
| Cn1nc2nc1-c1cc(ccn1)[S+]([O-])c1c(F)cc3[nH]ccc3c1CCS(=O)(=O)CC(C)(C)CCC[C@]2(C)c1cccc(CCO)c1 (single isomer, unassigned) [Compound 250] | C (a value between 20 and 80 is marked “C”) | C (a value greater than 10 °C and less than or equal to 25 °C is marked “C”) |
| C[C@@H](Cc1cccc([C@@]2(C)CCCC(C)(C)CS(=O)(=O)CCc3c(c(F)cc4[nH]ccc34)C(O)c3ccnc(c3)-c3nc2nn3C)c1)C(=O)O (single isomer, unassigned) [Compound 255A] | A (a TECC value less than 12 is marked “A”) | B (a value above 5 °C and less than or equal to 10 °C is marked “B”) |
| C[C@@H](Cc1cccc([C@@]2(C)CCCC(C)(C)CS(=O)(=O)CCc3c(c(F)cc4[nH]ccc34)C(O)c3ccnc(c3)-c3nc2nn3C)c1)C(=O)O (single isomer, unassigned) [Compound 255B] | C (a value between 20 and 80 is marked “C”) | C (a value greater than 10 °C and less than or equal to 25 °C is marked “C”) |
| Cn1nc2nc1-c1cc(ccn1)[S+]([O-])c1c(F)cc3[nH]ccc3c1CCS(=O)(=O)CC(C)(C)CCC[C@]2(C)c1cccc(CCC(=O)O)c1F (single isomer, unassigned) [Compound 260A] | C (a value between 20 and 80 is marked “C”) | C (a value greater than 10 °C and less than or equal to 25 °C is marked “C”) |
| Cn1nc2nc1-c1cc(ccn1)[S+]([O-])c1c(F)cc3[nH]ccc3c1CCS(=O)(=O)CC(C)(C)CCC[C@]2(C)c1cccc(CCC(=O)O)c1F (single isomer, unassigned) [Compound 260B] | A (a TECC value less than 12 is marked “A”) | B (a value above 5 °C and less than or equal to 10 °C is marked “B”) |
| C[C@@H](Cc1cccc(C2(C)CCCCCS(=O)(=O)CCc3c(c(F)cc4[nH]ccc34)Oc3ccnc(c3)-c3nc2nn3C)c1)C(=O)O (single isomer, unassigned) [Compound 261A] | C (a value between 20 and 80 is marked “C”) | C (a value greater than 10 °C and less than or equal to 25 °C is marked “C”) |
| C[C@@H](Cc1cccc(C2(C)CCCCCS(=O)(=O)CCc3c(c(F)cc4[nH]ccc34)Oc3ccnc(c3)-c3nc2nn3C)c1)C(=O)O (single isomer, unassigned) [Compound 261B] | A (a TECC value less than 12 is marked “A”) | A (an ΔTagg value less than or equal to 5 °C is marked “A”) |
| C[C@@H](O)Cc1cccc([C@@]2(C)CCCC(C)(C)CS(=O)(=O)CCc3c(c(F)cc4[nH]ccc34)[S+]([O-])c3ccc(F)c(c3)-c3nc2nn3C)c1 (single isomer, unassigned) [Compound 264] | C (a value between 20 and 80 is marked “C”) | C (a value greater than 10 °C and less than or equal to 25 °C is marked “C”) |
| C[C@@H](Cc1cccc(C2(C)CCCC(C)(C)CS(=O)(=O)CCc3c(c(F)cc4[nH]ccc34)Oc3ccnc(c3)-c3nc2nn3C)n1)C(=O)O (single isomer, unassigned) [Compound 266A] | A (a TECC value less than 12 is marked “A”) | A (an ΔTagg value less than or equal to 5 °C is marked “A”) |
| C[C@@H](Cc1cccc(C2(C)CCCC(C)(C)CS(=O)(=O)CCc3c(c(F)cc4[nH]ccc34)Oc3ccnc(c3)-c3nc2nn3C)n1)C(=O)O (single isomer, unassigned) [Compound 266B] | C (a value between 20 and 80 is marked “C”) | C (a value greater than 10 °C and less than or equal to 25 °C is marked “C”) |
| C[C@H](Cc1cccc([C@@]2(C)CCCC(C)(C)CS(=O)(=O)CCc3c(c(F)c(F)c4[nH]ccc34)[S+]([O-])c3ccnc(c3)-c3nc2nn3C)c1)C(=O)O (single isomer, unassigned) [Compound 269] | C (a value between 20 and 80 is marked “C”) | C (a value greater than 10 °C and less than or equal to 25 °C is marked “C”) |
| Cn1nc2nc1-c1cc(ccn1)[S+]([O-])c1c(F)cc3[nH]ccc3c1CCS(=O)(=O)CC(C)(C)CCC[C@]2(C)c1cccc(CC2(C(=O)O)CC2)c1 (single isomer, unassigned) [Compound 271] | C (a value between 20 and 80 is marked “C”) | C (a value greater than 10 °C and less than or equal to 25 °C is marked “C”) |
| Cn1nc2nc1-c1cc(ccn1)[S+]([O-])c1c(F)c(F)c3[nH]ccc3c1CCS(=O)(=O)CC(C)(C)CCC[C@]2(C)c1cccc(CC(C)(C)C(=O)O)c1 (single isomer, unassigned) [Compound 274] | C (a value between 20 and 80 is marked “C”) | C (a value greater than 10 °C and less than or equal to 25 °C is marked “C”) |
| Cn1nc2nc1-c1cc(ccn1)[S+]([O-])c1c(F)c(F)c3[nH]ccc3c1CCS(=O)(=O)CC(C)(C)CCC[C@]2(C)c1cccc(CCC(=O)O)c1 (single isomer, unassigned) [Compound 281] | C (a value between 20 and 80 is marked “C”) | C (a value greater than 10 °C and less than or equal to 25 °C is marked “C”) |
| COCC(Cc1cccc([C@@]2(C)CCCC(C)(C)CS(=O)(=O)CCc3c(c(F)cc4[nH]ccc34)Oc3ccnc(c3)-c3nc2nn3C)c1)C(=O)O (single isomer, unassigned) [Compound 284] | C (a value between 20 and 80 is marked “C”) | C (a value greater than 10 °C and less than or equal to 25 °C is marked “C”) |
| COCC(Cc1cccc([C@@]2(C)CCCC(C)(C)CS(=O)(=O)CCc3c(c(F)cc4[nH]ccc34)Oc3ccnc(c3)-c3nc2nn3C)c1)C(=O)O (single isomer, unassigned) [Compound 285] | C (a value between 20 and 80 is marked “C”) | C (a value greater than 10 °C and less than or equal to 25 °C is marked “C”) |
| Cn1nc2nc1-c1cc(ccn1)[S+]([O-])c1c(F)c(F)c3[nH]ccc3c1CCS(=O)(=O)CC(C)(C)CCC[C@]2(C)c1cccc(CC(O)CO)c1 (stereo in doubt) [Compound 292, (2R)-3-[3-[(6R)-21,22-difluoro-3,6,10,10-tetramethyl-12,12,24-trioxo-12λ6,24λ4-dithia-3,4,19,28,30-pentazapentacyclo[23.3.1.12,5.015,23.016,20]triaconta-1(29),2(30),4,15,17,20,22,25,27-nonaen-6-yl]phenyl]propane-1,2-diol] | C (a value between 20 and 80 is marked “C”) | C (a value greater than 10 °C and less than or equal to 25 °C is marked “C”) |
| Cn1nc2nc1-c1cc(ccc1F)Oc1c(F)cc3[nH]ccc3c1CCS(=O)(=O)CC(C)(C)CCCC2(C)c1cccc(CC(=O)O)c1 (stereo not drawn) [Compound 3, 2-[3-(22,28-Difluoro-3,6,10,10-tetramethyl-12,12-dioxo-24-oxa-12λ^6-thia-3,4,19,30-tetrazapentacyclo[23.3.1.1^2,5.0^15,23.0^16,20]triaconta-1(29),2(30),4,15,17,20,22,25,27-nonaen-6-yl)phenyl]acetic Acid] | B (a value between 12-20 is marked “B”) | C (a value greater than 10 °C and less than or equal to 25 °C is marked “C”) |
| Cn1nc2nc1-c1cc(ccc1F)Oc1c(F)cc3[nH]ccc3c1CCS(=O)(=O)CC(C)(C)CCCC2(C)c1cccc(CC2(C(=O)O)CC2)c1 (stereo not drawn) [Compound 14, 1-[[3-(22,28-difluoro-3,6,10,10-tetramethyl-12,12-dioxo-24-oxa-12lambda6-thia-3,4,19,30-tetrazapentacyclo[23.3.1.12,5.015,23.016,20]triaconta-1(29),2(30),4,15,17,20,22,25,27-nonaen-6-yl)phenyl]methyl]cyclopropanecarboxylic Acid] | B (a value between 12-20 is marked “B”) | C (a value greater than 10 °C and less than or equal to 25 °C is marked “C”) |
| CC(Oc1cccc(C2(C)CCCC(C)(C)CS(=O)(=O)CCc3c(c(F)cc4[nH]ccc34)Oc3ccc(F)c(c3)-c3nc2nn3C)c1)C(=O)O (stereo not drawn) [Compound 19B, 2-[3-[22,28-difluoro-3,6,10,10-tetramethyl-12,12-dioxo-24-oxa-12 6-thia-3,4,19,30-tetrazapentacyclo[23.3.1.12,5.015,23.016,20]triaconta-1(29),2(30),4,15,17,20,22,25,27-nonaen-6-yl]phenoxy]propanoic Acid] | A (a TECC value less than 12 is marked “A”) | A (an ΔTagg value less than or equal to 5 °C is marked “A”) |
